The target of assay [1] is T1, C-X-C chemokine receptor type 4 (Homo sapiens, UniProt P61073). The experiment in a line: Binding affinity to CXCR4 (unknown origin).
Assay [2] relates to Human immunodeficiency virus 1. As to the kind of experiment: Anti-HIV activity against HIV-1 IIIB infected in MT-4 cells. The assay is classed as functional, organism-based. To be noted: Human immunodeficiency virus 1, IIIB, MT4.
The subject of assay [3] is Human immunodeficiency virus 2. The experiment in a line: Anti-HIV activity against HIV-2 ROD infected in MT-4 cells. The assay is classed as functional, organism-based. To be noted: Human immunodeficiency virus 2, ROD, MT4.
The target of assay [4] is T1, C-X-C chemokine receptor type 4. As to the kind of experiment: Inhibition of 12G5-PE binding to CXCR4 in human U266B1 cells assessed as cell viability incubated for 1 hr by DAPI staining based flow cytometric analysis. For orientation: In flow cytometry, cells or beads pass a laser one at a time.

SMILES strings stand for the structures.

We go through 4 compounds from ChEMBL document CHEMBL6087423, “Grafting a chromophore on AMD070 analogues for CXCR4 bioimaging: Chemical synthesis and in vitro assessment of the inhibition properties of the CXCR4 receptor” (Bioorg Med Chem Lett, 2025).

T1 sequence (P61073 whole entry): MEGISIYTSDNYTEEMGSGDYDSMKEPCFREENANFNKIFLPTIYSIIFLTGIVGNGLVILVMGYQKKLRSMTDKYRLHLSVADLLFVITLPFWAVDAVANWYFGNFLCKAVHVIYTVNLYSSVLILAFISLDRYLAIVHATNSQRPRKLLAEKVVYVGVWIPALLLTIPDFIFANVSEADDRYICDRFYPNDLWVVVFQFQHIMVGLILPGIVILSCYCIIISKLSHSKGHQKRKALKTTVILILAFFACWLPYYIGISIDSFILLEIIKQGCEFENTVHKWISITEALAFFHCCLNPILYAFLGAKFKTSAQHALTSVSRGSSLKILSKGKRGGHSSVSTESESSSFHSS

As usually defined, the IC50 is the concentration that gives 50% inhibition. `NCc1cc(C(N)=O)ccc1CN(Cc1nc2ccccc2[nH]1)C1CCCc2cccnc21` (stereo not given) returned an IC50 in assay [1] of 0.01 µM.
For the compound `C1CNCCNCCCNC(C2CNCCCNCCNCCCN2)CNC1` (stereo not given), the IC50 in assay [2] and in assay [3] was 0.1 µM in each case.
In the case of `O=C1OC2(c3ccc(O)cc3Oc3cc(O)ccc32)c2ccc(NC(=S)NCCCCN(Cc3nc4ccccc4[nH]3)C3CCCc4cccnc43)cc21` (stereo not given), the IC50 in assay [4] stood at 5.62 µM.
In the case of `COC(=O)C(=O)c1ccc(CN(Cc2nc3ccccc3[nH]2)C2CCCc3cccnc32)c(CN)c1` (stereo not given), the IC50 in assay [1] turned out to be 0.01 µM.
